“Also recorded” adds a separate entry of the source. Where a SMILES comes first, the peptide text is derived from it.
Legend:
heart [1] = assay: heterotopic rat cardiac transplant, nitric oxide series, graft survival/score; assay type: in vivo, rat (male Sprague-Dawley); details: 12 h in LR
From the text: Male Sprague-Dawley rats (350 grams, Camm Research, Wayne, N.J.) were used, and harvest, preservation, and transplantation procedures performed as described^8. Preservation solutions included lactated Ringer's (LR) solution (Baxter, Edison, N.J.), or LR supplemented with nitroglycerin (DuPont, Wilmington, Del.), sodium nitroprusside (Roche Laboratories, Nutley, N.J.), N^G -monomethyl-L-arginine (L-NMMA; Chembiochem, Salt Lake City, Utah), L-arginine (Sigma Chemical Co., St. Louis, Mo.), or 8-bromoguanosine3',5'monophosphate (8-Br-cGMP; Sigma). Components were combined within 4 hrs of donor cardiectomy, and preservation solutions were kept at 4° C. All of these solutions were at the pH of LR (6.6). University of Wisconsin solution (UW) was purchased from Dupont. […] Ten minutes after removal of the cross-clamp, an electrocardiogram was taken (Grass Polygraph, Quincy, Mass.) and the heart was judged by the same blinded investigators throughout based on the presence/absence of regular contractions and a transplant score (0-5, worst-best, respectively) employing the following criteria: contraction (poor=0, average=1, vigorous=2), tissue turgor (hard=0, average=1, soft=2), and color (dusky=0, pink=1).
Graft survival data was analyzed by contingency analysis (chi-square). Transplant scores, microsphere perfusion, myeloperoxidase, NO synthase, and platelet serotonin release data were analyzed using ANOVA for unpaired variables with the Tukey test used to discriminate significant differences between group means. Values are expressed as means ±SEM, with a p<0.05 considered statistically significant.

heart [2] = assay: heterotopic rat cardiac transplant, cAMP series, graft survival/score; assay type: in vivo, rat (male Sprague-Dawley); details: 12 h in LR
From the text: Preservation solutions included lactated Ringer's (LR) solution Baxter, Edison, N.J.), or LR supplemented with rolipram ZK 62 711, Schering AG, Berlin, Germany), indolidan LY195115, Lilly Research Laboratories, Indianapolis, Ind.), sodium butyrate, 8-bromoadenosine, 8-bromoadenosine 3',5'monophosphate (8-Br-cAMP; Sigma Chemical Co., St. Louis, Mo.), the Rp -isomer of adenosine 3',5'monophosphorothioate (Rp -cAMPS; Biolog, La Jolla, Calif.), the Sp isomer of adenosine 3',5'monophosphorothioate (Sp -cAMPS; Biolog), and N^6,O^2' -dibutyryl adenosine 3',5'monophosphate sodium (db-cAMP; Aldrich, Milwaukee, Wis.). Components were combined within 4 hrs of donor cardiectomy, and preservation solutions were kept at 4° C. University of Wisconsin solution (UW)(2-4 was purchased from Dupont (Wilmington, Del.).
Donor Cardiectomy. Male Sprague-Dawley rats (350-450 grams, Camm Research, Wayne, N.J.) were anesthetized, heparinized (1000 units of heparin given intravenously), and the donor heart removed in the following manner; a midline incision was performed, followed by rapid cardioplegic arrest with 5 ml of cold (4° C.), high potassium solution (NACl, 0.9%, and KCl, 40 mEq/L). The heart was maintained at 4° C. throughout the harvest procedure by the application of a cold saline soaked gauze over its surface. […] The aortic root was flushed with ≈15 ml of the cold preservation solution until the coronary arteries became visibly clear, and the heart remained in the cold storage solution for the indicated duration until the time of transplantation.
Heterotopic Transplant. The same breed/size of rat was used, and similarly anesthetized, but not given heparin. A midline abdominal incision was made, and the infrarenal aorta and vena cava were occluded with a side-biting vascular clamp and longitudinal incisions were made in each vessel. The donor heart was removed from the preservation solution and kept moist with saline-soaked gauze. […] Blood flow was restored to the graft (by removal of the clamp) exactly one hour after removal from the cold preservation solution. […] Ten minutes after removal of the cross-clamp, an electrocardiogram was taken (Grass Polygraph, Quincy, Mass.) and the heart was judged by the same blinded investigators throughout based on the presence/absence of regular contractions and a transplant score (0-5, worst-best, respectively) employing the following criteria: contraction (poor=0, average=1, vigorous=2), tissue turgor (hard=0, average=1, soft=2), and color (dusky=0, pink=1). […] The heterotopic cardiac transplant experiments performed in these studies were done by a single surgeon after establishment of this model and acquisition of surgical expertise, with control and experimental groups interspersed throughout the study period to prevent a time-dependent bias pertaining to surgical skills.
Statistics. Graft survival data and transplant scores were analyzed using the Kruskal-Wallis non-parametric analysis of variance (38). Comparisons of individual treatments were performed using the procedure described by Dunn (39). In addition, the effect of db-cAMP on the time-course of graft failure was quantified by multivariate logistic regression. Graft myeloperoxidase data, microsphere data, and cAMP/adenylate cyclase/phosphodiesterase data from experiments with cultured vascular smooth muscle cells were analyzed by t-tests when 2 treatments were performed or by analysis of variance when 3 or more treatments were performed. In the latter case, post-hoc comparison of treatment groups were tested using Tukey's procedure. Values are expressed as means ±SEM, with a p <0.05 considered statistically significant.

lung = assay: orthotopic rat left lung transplantation, cGMP series (hemodynamics, oxygenation, recipient survival); assay type: in vivo, rat (male Lewis); details: 6 h in EC
Description: Orthotopic rat left lung transplantation was accomplished using inbred male Lewis rats (250-300 gms), using a modification of a previously described technique^29. The donor rat was anesthetized and heparinized (500 U intravenously), and endotracheal intubation was performed by inserting a 16 gauge angiocatheter into the trachea using blunt cervical dissection, after which the rat was ventilated with room air at a constant rate (100 breaths/minute) and tidal volume (2.5 ml), using a Harvard rodent ventilator. […] The pulmonary artery (PA) and pulmonary vein (PV) were divided, the bronchus ligated with the lung partially inflated and then divided, and the lung removed. The vascular stumps were each pulled through a small plastic cylinder, and a lip of vessel was turned back around the edge and secured in place with a suture to form a "cuff." A small plastic cylinder was inserted into the bronchial stump and secured, and the lung was then wrapped in gauze and submerged in cold preservation solution for the desired interval.
The recipient rat (gender/size/strain-matched) was similarly anesthetized and intubated (ventilated with 100% oxygen), but not heparinized. A left thoracotomy was performed, the hilum was dissected, and the left bronchus, PA, and PV were isolated, cross-clamped, divided and the native lung was removed from the field. The PA and PV stumps were rinsed with heparinized saline to remove any clot. The donor lung was brought onto the surgical field, and the cylinder (bronchus) and cuffs (PA and PV) were connected rapidly to their respective structures with a simple staying suture. This cuff technique permitted rapid approximation of donor and recipient tissues with no contact of a foreign substance with the luminal vascular surface. The hilar cross-clamp was released, re-establishing blood flow, and the bronchus tie was removed, enabling gas exchange. A snare was then passed around the right PA, and a Millar catheter (2F; Millar Instruments,Houston, Tex.) was introduced through a small hole (surrounded by a pursestring) into the main PA; similarly, a Millar catheter was introduced into the left atrium (LA). A flow probe (Transonics, Ithaca, N.Y.) was then placed around the main PA. Arterial blood gas sampling performed via the left femoral artery.
Online hemodynamic monitoring was accomplished using MacLab and a Macintosh IIci computer. The hemodynamic parameters that were measured included PA pressure (mm Hg), blood flow (ml/min), LA pressure (mm Hg), as well as arterial oxygen tension (mm Hg) during inspiration of 100% oxygen; pO2 was analyzed with a model ABL-2 dissolved gas analyzer (Radiometer, Copenhagen, Denmark). Pulmonary vascular resistances (PVRs) were calculated as [mean PA pressure-LA pressure]/PA flow. The native lung supported the recipient during the period of warm ischemia (the period during which the donor lung was removed from cold preservation until the time of reperfusion, <10 min. in all instances), but immediately following rapid hemodynamic instrumentation and acquisition of baseline measurements, the native (right) PA was then ligated, and serial measurements (representative solely of the transplanted lung) were taken every five minutes for 30 minutes. Because the native lung was effectively removed from the circulation by ligation of the right PA, these measurements represent function of the transplanted lung. Recipient death was identified by the cessation of cardiac mechanical activity observed through the thoracotomy.
Preservation solutions were freshly made and coded by a technician not otherwise involved in the experiments, according to a general plan which included both control and experimental groups. […]

[3] = test system: nitric oxide at lung surface; assay: in vivo pulmonary NO with porphyrinic microsensor; set-up: species or system rat; details: during continued reperfusion; A23187 9.5 μM
Description: Measurements of nitric oxide concentrations in vivo were performed with a two electrode system using a porphyrinic sensor as a working electrode and a platinum wire as an auxiliary/reference electrode. The porphyrinic sensor with a flexible base was lowered onto the exposed surface of the lung using a micromanipulator. A small piezoelectric signal (mechanically generated current) was used to indicate that the sensor had made contact with the tissue surface. NO measurements were begun once the flexible sensor assumed an L-shaped configuration on the tissue surface and the platinum wire was connected to adjacent tissue. Continous amperometric (current-time) measurements were obtained at a constant potential of 0.68 V, during the period of warm ischemia (after the lung was sewn in place but not yet reperfused) and continously as the vascular cross-clamp was released and reperfusion initiated. Topical application of the calcium ionophore (A23187, 9.5 μM; Sigma) and superoxide dismutase (100 U/ml; Sigma) was applied as monitoring was continued.

[4] = test system: nitric oxide production in heart; assay: direct measurement of coronary vascular and endocardial NO with porphyrinic microsensor; set-up: species or system rat
Description: Direct measurement of coronary vascular and endocardial nitric oxide synthesis were made with a porphyrinic microsensor^13 using differential pulse voltammetry or amperometry. Rat hearts were explanted and preserved as described above, and studied fresh (no preservation/transplantation) or after hypothermic preservation in lactated Ringer's (LR) solution, heterotopic transplantation, and 10 minutes of reperfusion. The coronary vasculature was flushed free of blood with LR followed by 4 ml of LR supplemented with L-Arg (2 mM) and bradykinin ([…], Sigma), which was recycled (1 ml/min) through the coronary vasculature by flushing down the cross-clamped aortic root. Aliquots of perfusate were immediately transferred to an anaerobic environment for measurements and compared to an aqueous nitric oxide reference. Differential pulse voltammograms were obtained using a sensor (working electrode), saturated calomel electrode reference, and platinum wire-auxiliary electrode, with a pulse amplitude of 40 mV. Endocardial NO was measured by implanting the sensor in the septal endocardium of a freshly explanted or preserved/transplanted heart, and after the baseline stabilization, […] bradykinin was applied and NO release continuously monitored by amperometry at constant potential of 0.63 V.

[5] = test system: cardiac graft vasculature; assay: perfusion of donor grafts by microspheres, nitric oxide series; assay type: in vivo, rat; details: 12 h preservation in LR
Description: Ten minutes after restoration of blood flow, 0.5 ml of 10 μm diameter microspheres (10^6 /ml) (E-Z Trac, Los Angeles, Calif.) was injected into the donor aortic root. Deposition of microspheres in ventricular tissue was assessed following alkaline hydrolysis, washing, and counting of microspheres as described^8, with results expressed as number of spheres per (40×) field per gram of ventricle. A minimum of ten fields were counted and the mean ±SEM is reported.

heart [6] = details: in vivo; cited from earlier work
[7] = test system: cGMP-dependent protein kinase; details: relative to cGMP; cited from earlier work

Structure (SMILES): N=C(NCCC[C@H](N)C(=O)O)N[N+](=O)[O-] [N^ω -nitro-L-arginine]
- effect on graft preservation (words) (heart [1]): blocked the beneficial effects of L-Arg

Structure (SMILES): CC1(C)C(=O)Nc2ccc(C3=NNC(=O)CC3)cc21 [indolidan]
- effect on cardiac preservation (heart [2]): uniformly enhanced preservation

Structure (SMILES): Nc1nc2c(nc(Br)n2[C@@H]2O[C@H](COP(=O)(O)O)[C@@H](O)[C@H]2O)c(=O)[nH]1 [8-bromoguanosine 5'monophosphate]
- effect on lung preservation (lung): without effect

Structure (SMILES): CNc1ccc2oc(C[C@H]3O[C@@]4(CC[C@H]3C)O[C@H]([C@H](C)C(=O)c3ccc[nH]3)[C@H](C)C[C@H]4C)nc2c1C(=O)O [A23187]
- effect on decline in NO [3]: did not alter the decline in NO

Structure (SMILES): CNC(=N)NCCC[C@H](N)C(=O)O [L-NMMA, N^G -monomethyl-L-arginine]
- effect on NO levels ([4]; transplanted hearts): blocked further NO production
- graft blood flow [5]: decreased blood flow
- effect on graft preservation (words) (heart [1]): blocked the beneficial effects of L-Arg
- graft survival (heart [1]; NTG 0.1 mg/ml where added): 0%
- effect on graft preservation (words) (heart [1]; listed as N^G -monomethyl-L-arginine): no survival of cardiac grafts; also recorded: poor preservation

Structure (SMILES): N=C(N)NCCC[C@H](N)C(=O)O [L-Arg, L-arginine]
- graft blood flow [5]: enhanced blood flow
- effect in cardiac ischemia models (heart [6]): improve vascular function and outcome
- effect on graft preservation (words) (heart [1]): enhanced preservation
- effect on graft preservation (words) (heart [1]; listed as L-arginine): enhanced graft survival

Structure (SMILES): NC(N)=NCCC[C@H](NC(=O)[C@H](Cc1ccccc1)NC(=O)[C@@H]1CCCN1C(=O)[C@H](CO)NC(=O)[C@H](Cc1ccccc1)NC(=O)CNC(=O)[C@@H]1CCCN1C(=O)[C@@H]1CCCN1C(=O)[C@@H](N)CCCN=C(N)N)C(=O)O [bradykinin] (H-RPPGFSPFR-OH)
- endocardial NO plateau following bradykinin challenge ([4]; freshly explanted heart): 0.67 ± 0.06 µM
- endocardial NO plateau following bradykinin challenge ([4]; preserved (38 hrs) heart): 0.17 ± 0.05 µM

Structure (SMILES): O=NO [acidified sodium nitrite, sodium nitrite]
- effect in cardiac ischemia models (heart [6]): blunt myocardial injury and neutrophil accumulation during reperfusion; also recorded: improve vascular function and outcome

Structure (SMILES): N=c1c[n+](N2CCOCC2)[n-]o1 [SIN-1]
- effect in cardiac ischemia models (heart [6]): improve vascular function and outcome

Structure (SMILES): Nc1ncnc2c1nc(Br)n2[C@@H]1O[C@@H]2COP(=O)(O)O[C@H]2[C@H]1O [8-Br-cAMP, 8-bromoadenosine 3'5'monophosphate]
- concentration for optimal/maximal preservation (heart [2]): 0.1 mM
- effect on cardiac preservation (heart [2]): prolonged graft survival
- graft survival (heart [2]; 8-Br-cAMP 0.1 mM): 100%
- fold less potent than cGMP in activating cGMP-dependent protein kinase [7]: 53 fold

Structure (SMILES): CCCC(=O)Nc1ncnc2c1ncn2[C@@H]1O[C@@H]2COP(=O)(O)O[C@H]2[C@H]1O [mb-cAMP, N^6 -monobutyryladenosine 3'5'monophosphate]
- fold less potent than cGMP in activating cGMP-dependent protein kinase [7]: 313 fold

Structure (SMILES): Nc1nc2c(nc(Br)n2[C@@H]2O[C@H](CO)[C@@H](O)[C@H]2O)c(=O)[nH]1 [8-Br-guanosine]
- effect on lung preservation (lung): without effect

— patent publication US5552267A, “Solution for prolonged organ preservation” (priority 1994, dated 1996)
